Measurements published in patent publication US7202239B2, “Cyclohexylphenyl carboxamides tocolytic oxytocin receptor antagonists” (Wyeth, priority 2001, dated 2007).

biological target: human vasopressin V1a receptor subtype (Homo sapiens, UniProt P37288); assay: Vasopressin binding in CHO cell membranes expressing human vasopressin V1a subtype receptors; details: 100 nM, [3H]Manning ligand
Description: Vasopressin Binding in Chinese Hamster Ovary Cell Membranes Expressing Human Vasopressin V1a Subtype Receptors
Chinese hamster ovary cells (CHO cells) stably transfected with the human vasopressin V1a subtype receptors were either obtained from Biosignal Inc., 1744 rue Williams, Montreal, Quebec, Canada or obtained from M. Thibonnier, Case Western Reserve University School of Medicine, Cleveland, Ohio. A. Passaging and Amplification of Cells: CHO cells transfected with the human vasopressin V1a subtype receptors obtained from M. Thibonnier (pZeoSV vector) are allowed to grow to confluency (approx. >90%) in T-150 flasks under sterile conditions, in a cell culture medium of F-12 Nutrient Mixture (HAM) with L-glutamine (Gibco Cat. # 11765-054) containing 15 mM HEPES (Gibco Cat. 15630-080), 1% antibiotic/antimycotic (add 5 mL 100×, Gibco Cat. 15240-062 per 500 mL F-12), 250 μg/mL Zeocin (add 1.25 mL of 100 mg/mL Invitrogen R-250-01 per 500 mL F-12) and 10% Fetal Bovine Serum (Qualified, heat inactivated, Gibco Cat. # 16140-063). The medium is removed by aspiration and the cells are washed with 10 mL of Hank's Balanced Salt solution (Gibco Cat. # 14175-095). The salt solution is removed by aspiration and the cells are trypsinized with 5 mL of trypsin-EDTA (0.05% trypsin, 0.53 mM EDTA-4Na, Gibco Cat. # 25300-070) for 1 min. The trypsin is removed by aspiration and the cells dislodged by tapping. Cell Culture medium (eg, 30 mL for 1:30 split) is immediately added and mixed well to inactivate trypsin. 1 mL of detached cells is added to new culture flasks containing fresh cell culture medium (eg, into 25 mL per T-150 flask), and mixed gently. The cells are incubated at 37° C. in 5% CO2. The medium is changed at 3 to 4 days interval (or as appropriate). The cells grow to confluency (approx. >75%–95%) within 7–8 days. All steps are done under sterile conditions. B. Membrane Preparation: The cells are washed twice gently with Hank's Balanced Salt solution (e.g,. use 10 mL per T-150 flask). The excess is removed and the cells are bathed for 15–30 min. in an enzyme-free Cell Dissociation Buffer (e.g. use 8 mL Hank's Based, Gibco Cat. # 13150-016 per T-150 flask) until the cells are loosened. The contents are transferred to centrifuge tubes (50 mL) kept in an ice bath. All subsequent steps are done at 4° C. The tubes are centrifuged at 300×g for 15 min (1380 rpm on SORVAL, Model RT6000D, using rotor for the 50 mL tubes). The supernatant is discarded and the cells suspended in homogeneizing buffer(10 mM Tris-HCl containing 0.25 M sucrose and 1 mM EDTA, pH 7.4) ensuring that the volume of the buffer is about ten times the volume of the cell pellet. The cells are pooled into a centrifuge tube (50 mL) and homogenized with Polytron at setting 6 for 10 sec. The homogenate is transferred into a Potter-Elvjehm homogenizer and homogenized with 3 strokes. The homogenate is centrifuged at 1500× g for 10 min at 4° C. (3100 rpm using SORVAL, model RT6000D, using the rotor for 50 mL tubes). The pellet is discarded. The supernatant is centrifuged at 100,000×g for 60 min. at 4° C. (Beckman L8-80M ultracentrifuge; spin at 37,500 rpm with rotor type 70 Ti for 50 mL tubes; 38,000 rpm with type 80Ti for 15 mL tubes; or 35,800 rpm with rotor type 45Ti). The supernantant is discarded and the pellet suspended in 3 to 4 mL of Tris buffer (50 mM TRIS-HCl, pH 7.4). The protein content is estimated by the Bradford or Lowry method. The volume of the membrane suspension is adjusted with the membrane buffer (50 mM Tris-HCl containing 0.1% BSA and 0.1 mM PMSF) to give 3.0 mg/mL (or as appropriate) of protein. The membranes are aliquoted and stored at −70° C. C. […]

human vasopressin V1a receptor subtype, sequence (P37288 whole entry): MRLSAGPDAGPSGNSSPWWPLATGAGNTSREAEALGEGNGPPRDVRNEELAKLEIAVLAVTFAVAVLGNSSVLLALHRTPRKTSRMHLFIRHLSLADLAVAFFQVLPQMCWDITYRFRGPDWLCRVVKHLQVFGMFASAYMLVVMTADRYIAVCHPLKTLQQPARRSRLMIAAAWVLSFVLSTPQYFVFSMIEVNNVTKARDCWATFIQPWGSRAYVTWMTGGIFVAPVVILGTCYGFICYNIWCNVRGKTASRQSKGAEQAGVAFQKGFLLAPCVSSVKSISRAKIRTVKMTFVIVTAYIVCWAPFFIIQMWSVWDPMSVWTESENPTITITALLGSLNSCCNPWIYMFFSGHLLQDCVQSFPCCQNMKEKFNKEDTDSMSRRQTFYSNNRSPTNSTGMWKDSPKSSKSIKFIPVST

Row | SMILES | V1a % inhibition at 100 nM [%] | inhibition at 0.1 µM [%]
1 | Cc1ccccc1C(=O)NNC(=O)c1ccc2n1Cc1ccccc1N(C(=O)c1ccc(C3CCCCC3)cc1)C2 [Example 12, 10-(4-Cyclohexyl-benzoyl)-N′-(2-methylbenzoyl)-10,11-dihydro-5H-pyrrolo[2,1-c][1,4]benzodiazepine-3-carbonyl-hydrazide] | 31 | 
2 | O=C(NNC(=O)C1CC1)c1ccc2n1Cc1ccccc1N(C(=O)c1ccc(C3CCCCC3)cc1)C2 [Example 13, 10-(4-Cyclohexyl-benzoyl)-N′-(cyclopropylcarbonyl)-10,11-dihydro-5H-pyrrolo[2,1-c][1,4]benzodiazepine-3-carbonyl-hydrazide] | 35 | 
3 | Cc1cccc(C(=O)NNC(=O)c2ccc3n2Cc2ccccc2N(C(=O)c2ccc(C4CCCCC4)cc2)C3)c1 [Example 14, 10-(4-Cyclohexyl-benzoyl)-N′-(3-methyl-benzoyl)-10,11-dihydro-5H-pyrrolo[2,1-c][1,4]benzodiazepine-3-carbonyl-hydrazide] | 23 | 
4 | O=C(NNC(=O)c1ccc2n1Cc1ccccc1N(C(=O)c1ccc(C3CCCCC3)cc1)C2)Nc1ccccc1 [Example 15, 2-{[10-(4-Cyclohexyl-benzoyl)-10,11-dihydro-5H-pyrrolo[2,1-c][1,4]benzodiazepin-3-yl]carbonyl}-N-phenyl-1-hydrazinecarboxamide] |  | -4
5 | CN(N)C(=O)c1ccc2n1Cc1ccccc1N(C(=O)c1ccc(C3CCCCC3)cc1)C2 [Example 21, 10-(4-Cyclohexyl-benzoyl)-N-methyl-10,11-dihydro-5H-pyrrolo[2,1-c][1,4]benzodiazepine-3-carboxylic acid hydrazide] |  | 21
6 | O=C(O)c1ccc2n1Cc1ccccc1N(C(=O)c1ccc(C3CCCCC3)cc1)C2 [Example 22, 10-(4-Cyclohexyl-benzoyl)-10,11-dihydro-5H-pyrrolo[2,1 c][1,4]benzodiazepine-3-carboxylic acid] | 13 | 
7 | COc1ccc(NC(=O)c2ccc3n2Cc2ccccc2N(C(=O)c2ccc(C4CCCCC4)cc2)C3)cc1 [Example 29, 10-(4-Cyclohexyl-benzoyl)-10,11-dihydro-5H-pyrrolo[2,1-c][1,4]benzodiazepine-3-carboxylic acid (4-methoxy-phenyl)-amide] |  | 2
8 | O=C(C(=O)N1CCC(N2CCCCC2)CC1)c1ccc2n1Cc1ccccc1N(C(=O)c1ccc(C3CCCCC3)cc1)C2 [Example 31, 1-[1.4′]Bipiperidinyl-1′-yl-2-[10-(4-cyclohexyl-benzoyl)-10,11-dihydro-5H-pyrrolo[2,1-c][1,4]benzodiazepin-3-yl]-ethane-1,2-dione] | 69 | 
9 | CN1CCN(C(=O)C(=O)c2ccc3n2Cc2ccccc2N(C(=O)c2ccc(C4CCCCC4)cc2)C3)CC1 [Example 32, 1-[10-(4-Cyclohexyl-benzoyl)-10,11-dihydro-5H-pyrrolo[2,1-c][1,4]benzodiazepin-3-yl]-2-(4-methyl-1-piperazin-1-yl)-1,2-ethane-1,2-dione] | 56 | 
10 | CN(C)CCCNC(=O)c1ccc2n1Cc1ccccc1N(C(=O)c1ccc(C3CCCCC3)cc1)C2 [Example 33, 10-(4-Cyclohexyl-benzoyl)-N-[3-(dimethylamino)propyl]-10,11-dihydro-5H-pyrrolo[2,1-c][1,4]benzodiazepine-3-carboxamide] |  | 27
11 | CN(C)CCN(C)C(=O)c1ccc2n1Cc1ccccc1N(C(=O)c1ccc(C3CCCCC3)cc1)C2 [Example 34, 10-(4-Cyclohexyl-benzoyl)-N-[2-(dimethylamino)-ethyl]-N-methyl-10,11-dihydro-5H-pyrrolo[2,1-c][1,4]benzodiazepine-3-carboxamide] |  | 3
12 | CN(C)CCCN(C)C(=O)c1ccc2n1Cc1ccccc1N(C(=O)c1ccc(C3CCCCC3)cc1)C2 [Example 35, 10-(4-Cyclohexyl-benzoyl)-N-[3-(dimethylamino)propyl]N-methyl-10,11-dihydro-5H-pyrrolo[2,1-c][1,4]benzodiazepine-3-carboxamide] |  | 12
13 | O=C(NCCCn1ccnc1)c1ccc2n1Cc1ccccc1N(C(=O)c1ccc(C3CCCCC3)cc1)C2 [Example 36, 10-(4-Cyclohexyl-benzoyl)-N-[3-(1H-imidazol-1-yl)propyl]-10,11-dihydro-5H-pyrrolo[2,1-c][1,4]benzodiazepine-3-carboxamide] |  | 3
14 | O=C(NCCN1CCCCC1)c1ccc2n1Cc1ccccc1N(C(=O)c1ccc(C3CCCCC3)cc1)C2 [Example 37, 10-(4-Cyclohexyl-benzoyl)-N-[2-(1-piperidinyl)ethyl]-10,11-dihydro-5H-pyrrolo[2,1-c][1,4]benzodiazepine-3-carboxamide] |  | 23
15 | CN1CCCC1CCNC(=O)c1ccc2n1Cc1ccccc1N(C(=O)c1ccc(C3CCCCC3)cc1)C2 (centres unmarked) [Example 38, 10-(4-Cyclohexyl-benzoyl)-N-[2-(1-methyl-2-pyrrolidinyl)ethyl]-10,11-dihydro-5H-pyrrolo[2,1-c][1,4]benzodiazepine-3-carboxamide] |  | 31
16 | CN1CCC(N(C)C(=O)c2ccc3n2Cc2ccccc2N(C(=O)c2ccc(C4CCCCC4)cc2)C3)CC1 [Example 39, 10-(4-Cyclohexyl-benzoyl)-N-methyl-N-(1-methyl-4-piperidinyl)-10,11-dihydro-5H-pyrrolo[2,1-c][1,4]benzodiazepine-3-carboxamide] |  | 43

same assay, conditions: [3H]Manning ligand, value in parentheses

Row | SMILES | IC50 [nM]
17 | CC(=O)c1ccc2n1Cc1ccccc1N(C(=O)c1ccc(C3CCCCC3)cc1)C2 [Example 6, 1-[10-(4-Cyclohexyl-benzoyl)-10,11-dihydro-5H-pyrrolo[2,1-c][1,4]benzodiazepin-3-yl]-ethanone] | 258
18 | NNC(=O)c1ccc2n1Cc1ccccc1N(C(=O)c1ccc(C3CCCCC3)cc1)C2 [Example 8, 10-(4-Cyclohexy-benzoyl)-10,11-dihydro-5H-pyrrolo[2,1-c][1,4]benzodiazepine-3-carboxylic acid hydrazide] | 543
19 | CC(=O)NNC(=O)c1ccc2n1Cc1ccccc1N(C(=O)c1ccc(C3CCCCC3)cc1)C2 [Example 11, N′-Acetyl-10-(4-cyclohexyl-benzoyl)-10,11-dihydro-5H-pyrrolo[2,1-c][1,4]benzodiazepine-3-carbonyl-hydrazide] | 367
20 | O=C(c1ccc2n1Cc1ccccc1N(C(=O)c1ccc(C3CCCCC3)cc1)C2)N1CCN(c2ncccn2)CC1 [Example 23] | 635
21 | O=C(c1ccc2n1Cc1ccccc1N(C(=O)c1ccc(C3CCCCC3)cc1)C2)N1CCC(N2CCCC2)CC1 [Example 25, [10-(4-Cyclohexyl-benzoyl)-10,11-dihydro-5H-pyrrolo[2,1-c][1,4]benzodiazepin-3-yl][4-(1-pyrrolidinyl)-1-piperidinyl]methanone] | 90.4
22 | O=C(c1ccc2n1Cc1ccccc1N(C(=O)c1ccc(C3CCCCC3)cc1)C2)N1CCC(N2CCCCC2)CC1 [Example 26, [1,4′]Bipiperidinyl-1′-yl-[10-(4-cyclohexyl-benzoyl)-10,11-dihydro-5H-pyrrolo[2,1-c][1,4]benzodiazepin-3-yl]-methanone] | 200
23 | O=C(c1ccc2n1Cc1ccccc1N(C(=O)c1ccc(C3CCCCC3)cc1)C2)N1CCN(c2ccccn2)CC1 [Example 28, [10-(4-Cyclohexyl-benzoyl)-10,11-dihydro-5H-pyrrolo[2,1-c][1,4]benzodiazepine 3-yl][4-(2-pyridinyl)-1-piperazinyl]-methanone] | > 1000
